# Laboratory results as given in patent US9949970B2, “Synthesis of new benzothiazole derivatives as potential anti-tubercular agents” (priority 2010, dated 2018).
# System: M. tuberculosis H37Rv
# Assay: Antimycobacterial activity: MIC by broth microdilution / Nitrate Reductase Assay
# Type: cell-based, Mycobacterium tuberculosis
# Details: Mycobacterium tuberculosis, H37RV, lowest concentration showing no colour change (NRA)
row,SMILES,MIC [µg/mL]
1,"O=[N+]([O-])c1ccc2nc(NN=Cc3ccc([N+](=O)[O-])o3)sc2c1 [Compound 3o, 5-nitro-2-furaldehyde 2-(6-nitro-1,3-benzothiazole-2-yl)hydrazone]",16
2,"O=[N+]([O-])c1ccc2nc(NN=Cc3ccc([N+](=O)[O-])s3)sc2c1 [Compound 3p, 5-nitro-2-thiophenecarbaldehyde 2-(6-nitro-1,3-benzothiazole-2-yl)hydrazone]",> 16

# Same assay, conditions: Mycobacterium tuberculosis, H37RV, lowest concentration showing no colour change (NRA), read-out: MIC
row,SMILES,MIC [µg/mL]
1,"O=[N+]([O-])c1ccc(C=NNc2nc3ccccc3s2)o1 [Compound 3a, 5-nitro-2-furaldehyde 2-(1,3-benzothiazole-2-yl)hydrazone]",> 16
2,"O=[N+]([O-])c1ccc(C=NNc2nc3ccccc3s2)s1 [Compound 3b, 5-nitro-2-thiophenecarbaldehyde 2-(1,3-benzothiazole-2-yl)hydrazone]",> 16
3,"Cc1ccc2nc(NN=Cc3ccc([N+](=O)[O-])o3)sc2c1 [Compound 3c, 5-nitro-2-furaldehyde 2-(6-methyl-1,3-benzothiazole-2-yl)hydrazone]",> 16
4,"Cc1ccc2nc(NN=Cc3ccc([N+](=O)[O-])s3)sc2c1 [Compound 3d, 5-nitro-2-thiophenecarbaldehyde 2-(6-methyl-1,3-benzothiazole-2-yl)hydrazone]",> 16
5,"COc1ccc2nc(NN=Cc3ccc([N+](=O)[O-])o3)sc2c1 [Compound 3e, 5-nitro-2-furaldehyde 2-(6-methoxy-1,3-benzothiazole-2-yl)hydrazone]",> 16
6,"COc1ccc2nc(NN=Cc3ccc([N+](=O)[O-])s3)sc2c1 [Compound 3f, 5-nitro-2-thiophenecarbaldehyde 2-(6-methoxy-1,3-benzothiazole-2-yl)hydrazone]",> 16
7,"O=[N+]([O-])c1ccc(C=NNc2nc3ccc(C(F)(F)F)cc3s2)o1 [Compound 3g, 5-nitro-2-furaldehyde 2-(6-trifluoromethyl-1,3-benzothiazole-2-yl)hydrazone]",> 16
8,"O=[N+]([O-])c1ccc(C=NNc2nc3ccc(C(F)(F)F)cc3s2)s1 [Compound 3h, 5-nitro-2-thiophenecarbaldehyde 2-(6-trifluoromethyl-1,3-benzothiazole-2-yl)hydrazone]",> 16
9,"O=[N+]([O-])c1ccc(C=NNc2nc3ccc(OC(F)(F)F)cc3s2)o1 [Compound 3i, 5-nitro-2-furaldehyde 2-(6-trifluoromethoxy-1,3-benzothiazole-2-yl)hydrazone]",> 16
10,"O=[N+]([O-])c1ccc(C=NNc2nc3ccc(F)cc3s2)o1 [Compound 3k, 5-nitro-2-furaldehyde 2-(6-fluoro-1,3-benzothiazole-2-yl)hydrazone]",> 16
11,"O=[N+]([O-])c1ccc(C=NNc2nc3ccc(F)cc3s2)s1 [Compound 3l, 5-nitro-2-thiophenecarbaldehyde 2-(6-fluoro-1,3-benzothiazole-2-yl)hydrazone]",> 16
12,"O=[N+]([O-])c1ccc(C=NNc2nc3ccc(Cl)cc3s2)o1 [Compound 3m, 5-nitro-2-furaldehyde 2-(6-chloro-1,3-benzothiazole-2-yl)hydrazone]",16
13,"O=[N+]([O-])c1ccc(C=NNc2nc3ccc(Cl)cc3s2)s1 [Compound 3n, 5-nitro-2-thiophenecarbaldehyde 2-(6-chloro-1,3-benzothiazole-2-yl)hydrazone]",> 16
14,"O=C(NNc1nc2ccccc2s1)c1ccc([N+](=O)[O-])o1 [Compound 4a, N′2-(1,3-benzothiazol-2-yl)-5-nitro-2-furancarbohydrazide]",> 16
15,"Cc1ccc2nc(NNC(=O)c3ccc([N+](=O)[O-])o3)sc2c1 [Compound 4b, N′2-(6-methyl-1,3-benzothiazol-2yl)-5-nitro-2-furancarbohydrazide]",> 16
16,"COc1ccc2nc(NNC(=O)c3ccc([N+](=O)[O-])o3)sc2c1 [Compound 4c, N′2-(6-methoxy-1,3-benzothiazol-2-yl)-5-nitro-2-furancarbohydrazide]",> 16
